In ChEMBL document CHEMBL1133962, “Bicyclic anti-VZV nucleosides: Thieno analogues retain full antiviral activity” (Bioorg Med Chem Lett, 2001):

Columns and labels:
[1] = test system: HEL; assay: Cytotoxic concentration required to inhibit growth of human embryonic lung cells (HEL); type: functional
[2] = test system: HEL; assay: Antiviral activity was measured as effective concentration required to reduce thymidine kinase-deficient. Varicella Zoster virus (YS/R)-induced plaque formation in human embryonic lung cells; type: functional, cell-based
[3] = test system: HEL; assay: Antiviral activity was measured as effective concentration required to reduce Varicella Zoster virus (OKA)-induced plaque formation in human embryonic lung cells; type: functional, cell-based
[4] = test system: HEL; assay: Antiviral activity was measured as effective concentration required to reduce Varicella Zoster virus (YS)-induced plaque formation in human embryonic lung cells; type: functional, cell-based
[5] = test system: HEL; assay: Antiviral activity was measured as effective concentration required to reduce thymidine kinase-deficient. Varicella Zoster virus (07/1)-induced plaque formation in human embryonic lung cells; type: functional, cell-based
[6] = test system: HEL; assay: Minimal cytotoxic concentration required to alter microscopically detectable cell (of human embryonic lung cells (HEL)) morphology; type: functional

SMILES	CC50 [1]	EC50 [2]	EC50 [3]	EC50 [4]	EC50 [5]	MCC [6]
CCCCCCCCCc1cc2cn([C@H]3C[C@H](O)[C@@H](CO)O3)c(=O)nc2s1	> 20 µM	> 20 µM	0.01 µM	0.01 µM	> 20 µM	> 20 µM
CCCCCCc1cc2cn([C@H]3C[C@H](O)[C@@H](CO)O3)c(=O)nc2s1	> 200 µM	≥ 50 µM	0.14 µM	0.14 µM	≥ 50 µM	125 µM
CCCCCCCCCCc1cc2cn([C@H]3C[C@H](O)[C@@H](CO)O3)c(=O)nc2o1	> 50 µM	> 50 µM	0.015 µM	0.008 µM	> 50 µM	> 50 µM
CCCCCCCCc1cc2cn([C@H]3C[C@H](O)[C@@H](CO)O3)c(=O)nc2s1	53 µM	> 5 µM	0.002 µM	0.005 µM	≥ 5 µM	20 µM
CCCCCCCCCCCCc1cc2cn([C@H]3C[C@H](O)[C@@H](CO)O3)c(=O)nc2s1	49 µM	> 5 µM	0.2 µM	0.3 µM	> 5 µM	12 µM
CCCCc1cc2cn([C@H]3C[C@H](O)[C@@H](CO)O3)c(=O)nc2s1	> 200 µM	153 µM	0.16 µM	0.15 µM	≥ 200 µM	≥ 100 µM
CCCCCCCCCCc1cc2cn([C@H]3C[C@H](O)[C@@H](CO)O3)c(=O)nc2s1	54 µM	> 5 µM	0.03 µM	0.06 µM	> 5 µM	20 µM
Nc1nc2c(ncn2COCCO)c(=O)[nH]1 [ACYCLOVIR]	> 400 µM	44 µM	1.1 µM	1.5 µM	40 µM	> 200 µM
